These are literature values, as cited in patent US20170333571A1, “Targeted Delivery Platform for Delivery of Therapeutics” (The Regents of the University of California, priority 2014, published 2017).

No end group written: not given here.

The test system of this series is colitis-induced inflammation. The note with it: exogenous administration, rats and mice.

As for “Ucn1: small peptide (~38 aa), Urocortin 1 (DNPSLSIDLTFHLLRTLLELARTQSQRERAEQNRIIFDSV; ends and bridges not checked; also: 5FAM label, position not given here (in delivery test); UniProt P55089 83-122, looked up)”, the colitis-induced inflammation result was “reduces colitis-induced inflammation”.
